Experimental data from US20110281815A1, “Parental formulations of gemcitabine derivatives” (CLAVIS PHARMA AS, priority 2009, published 2011).

How the values were obtained:
[1] = rapid deamination to dFdU; cited from earlier work
[2] = formulation of elacytarabine model substance with egg PC/egg PG; assay type: physicochemical
Method: (§1) It was investigated if the unexpectedly high concentration (15 mg/mL-60 mg/mL) of the active compound achieved in the formulations described in Examples 1 through 7, and under section 6, Manufacture of the Formulation, was unique to a chemical compound as shown in Formula (I) or if the method was of a more general nature. The structurally similar compound elacytarabine (ara-C-5′-elaidic acid ester) as shown in Formula (II) was used as a related model substance. This model substance contains the same 5′-elaidic acid ester moiety as found in Formula (I) (R1=R3=H, R2=elaidate), and the same cytosine nucleoside ring system. The minor difference between the compounds described in Formula (I) and Formula (II) is the substitution at the 2′ position of the ribose ring for Formula (I) contains geminal fluorines, while Formula (II) contains H and OH.
It is concluded that the Formula I compound provides unexpectedly unique attributes of high loading and stability to the described lipid based formulations.

[3] = buffer, pH 7.4
[4] = drug load / particle formation of gemcitabine-5′-elaidate in alternative formulations; assay type: physicochemical
Method: Particle formation without the use of phospholipids was not successful. Gemcitabine-5′-elaidic acid ester was dissolved in ethanol in a weight ratio of 1:24. The mixture was stirred until all solid material was dissolved.
The ethanol solution was thereafter injected into a […] with vigorous mixing. The weight ratio of ethanol solution to the glycerol solution was 1:12. The mixture appeared to contain conglomerates as determined by visual inspection.
Mixed micellar formulations with phospholipids and non-ionic surfactants were not successful in preparation of high drug load formulations. Mixed micelles were prepared using a 1:1 weight ratio of egg lecithin:Tween 20 for a final concentration of 50 mg/mL dissolved solids.
Liposomal formulations with egg lecithin and oleic acid were not successful in preparation of high drug load formulations. Liposomes were prepared by means of dissolution of gemcitabine-5′-elaidate, egg lecithin, and oleic acid in a molar ratio of 1:14.4:2 in ethanol. The solvent was evaporated and the residual solids dispersed into 2.6% glycerol in water using an Ultraturrax followed by high pressure homogenization. Stable formulations could be achieved up to 3 mg/mL gemcitabine-5′-elaidate.
as §1

[5] = human, in vivo
Method: (§2) The intravenous formulation of gemcitabine-5′-elaidic acid ester as described in Example 1 was used in a phase I, first in human clinical study. The aims of this study were to determine the safety, toxicity, MTD (Maximum Tolerated Dose) and the RD (Recommended Dose) of gemcitabine-5′-elaidic acid ester, to describe its pharmacokinetic (PK) characteristics, and to assess its preliminary antitumor activity.
(§3) Gemcitabine-5′-elaidic acid ester was administered on days (d) 1, 8 and 15 every 4 week by a 30 min IV infusion. The dose range was from 30 to 1600 mg/m2/d. 43 patients were enrolled and the RD was established at 1250 mg/m^2/d. […] Stabilisation of disease (>3 months) reported in 7 patients (pancreas, colon and ovarian cancer) lasting between 3.5 to >8 months.
Gemcitabine-5′-elaidic acid ester was detected in plasma up to 24 hrs post-dosing. […] Urinary excretion of the main metabolite, dFdU, during the first 24 hrs was 48-71% of the dose.

[6] = test system: pancreas, colon and ovarian cancer; assay: phase I clinical study: preliminary antitumor activity; assay type: in vivo, human
Method: as §2, §3

[7] = human, in vivo; remark: listed apart in the source
Method: as §2, §3

## Nc1ccn([C@@H]2O[C@H](CO)[C@@H](O)C2(F)F)c(=O)n1 [gemcitabine, 2′,2′-difluorodeoxy-cytidine]
[1]
  half-life of gemcitabine in plasma: approximately 10 minutes

## CCCCCCCC/C=C/CCCCCCCC(=O)OC[C@H]1O[C@@H](n2ccc(N)nc2=O)[C@@H](O)[C@@H]1O [Elacytarabine, ara-C-5′-elaidic acid ester]
[2]; Egg PC/egg PG, 10 mg/mL
  Particle size (Z-.avg): (Z-.avg) 97 nm
  outcome after filtration: Large lipid agglomerates
[2]; Egg PC/egg PG, 15 mg/mL, storage at 2-8° C.
  outcome upon storage: Precipitation
[2]; Egg PC/egg PG, elacytarabine concentration 10 mg/mL
  Final content: Final content 8 mg/ml.
[2]; Egg PC/egg PG, elacytarabine concentration 15 mg/mL
  Final content: 12 mg/mL
[2]; Egg PC/egg PG, elacytarabine concentration 20 mg/mL, during homogenisation
  formulation outcome: Precipitation during
[2]; Egg PC/egg PG, elacytarabine concentration 30 mg/mL, during solvent injection
  formulation outcome: Precipitation
[2]; Formula II compound included in excess of 20 mg/mL
  formulation outcome: precipitation during processing
[2]; target concentrations of less than 15 mg/mL, precipitation and agglomeration
  formulation outcome on storage: unstable during storage

## CCCCCCCC/C=C/CCCCCCCC(=O)OC[C@H]1O[C@@H](n2ccc(N)nc2=O)C(F)(F)[C@@H]1O [gemcitabine-5′-elaidic acid ester]
[3]
  half life (hydrolytic degradation): approximately 30 minutes
[4]; 1:1 egg lecithin:Tween 20, 50 mg/mL dissolved solids
  maximal concentration of gemcitabine-5′-elaidate in mixed micelles: less than 5 mg/mL
[4]; egg lecithin and oleic acid liposomes, 2.6% glycerol in water
  concentration up to which stable liposomal formulations could be achieved: up to 3 mg/mL
[4]; egg lecithin with glycholic acid as surfactant
  maximal concentration of gemcitabine-5′-elaidate in mixed micelles: 2 mg/mL
[4]; ethanol solution injected into water for injection, homogenization attempted
  particle formation without phospholipids: not capable of forming stable particles
[5]
  AUC for gemcitabine (dFdC) exposure versus intravenous gemcitabine at comparable dose levels: significantly higher
[5]; iv
  time detected in plasma post-dosing: up to 24 hrs
[6]; 43 patients enrolled, pancreas, colon and ovarian cancer
  stabilisation of disease (>3 months), number of patients: 7 patients
[6]; one patient with ovarian cancer
  reduction in tumor mass: 28.3%
[7]
  most frequent toxicities: nausea, fatigue, vomiting and anorexia
[7]; iv
  RD (Recommended Dose): 1250 mg/m^2/d
  recommended dose for intravenous administration: 1250 mg/m^2
